The results in this text go back to BindingDB's records for doi:10.1016/s0960-894x(00)00312-7 (Signal Pharmaceuticals, 2000).

Structures are written as SMILES.

Sequence of Protein c-Fos/Transcription factor Jun (P05412 whole entry): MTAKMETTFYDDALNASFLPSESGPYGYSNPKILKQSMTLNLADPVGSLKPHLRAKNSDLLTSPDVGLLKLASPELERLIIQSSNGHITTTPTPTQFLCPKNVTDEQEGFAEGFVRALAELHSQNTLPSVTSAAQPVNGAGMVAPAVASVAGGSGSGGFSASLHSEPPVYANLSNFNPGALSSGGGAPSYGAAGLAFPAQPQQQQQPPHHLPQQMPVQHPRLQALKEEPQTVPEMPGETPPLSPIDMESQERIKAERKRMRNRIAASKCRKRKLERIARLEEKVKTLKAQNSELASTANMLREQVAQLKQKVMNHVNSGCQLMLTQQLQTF
Sequence of Protein c-Fos/Transcription factor Jun (P01100 whole entry): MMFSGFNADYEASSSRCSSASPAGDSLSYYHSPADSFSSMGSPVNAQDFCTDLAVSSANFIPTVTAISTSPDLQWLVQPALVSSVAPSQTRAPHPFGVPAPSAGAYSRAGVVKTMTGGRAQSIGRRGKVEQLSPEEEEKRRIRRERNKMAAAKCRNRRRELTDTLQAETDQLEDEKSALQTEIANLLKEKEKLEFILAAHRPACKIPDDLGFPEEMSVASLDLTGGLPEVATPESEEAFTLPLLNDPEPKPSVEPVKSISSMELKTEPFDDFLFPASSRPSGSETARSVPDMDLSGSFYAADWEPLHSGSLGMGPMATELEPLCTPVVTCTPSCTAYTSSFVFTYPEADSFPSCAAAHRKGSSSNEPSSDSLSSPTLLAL

This assay addresses Protein c-Fos/Transcription factor Jun (Homo sapiens, UniProt P05412+P01100). Kind of assay: Inhibition of AP-1 (activator protein-1) mediated transcriptional activation in Jurkat T-cells.
Take `CC1=CC(=O)N(Nc2nc(-c3cccs3)ncc2C2=NCCO2)C1=O` [1-[5-(4,5-Dihydro-oxazol-2-yl)-2-thiophen-2-yl-pyrimidin-4-ylamino]-3-methyl-pyrrole-2,5-dione]: half-maximal inhibition (IC50) was put at 0.2 µM.
Compound `CCOC(=O)c1cnc(-c2cccc(Br)c2)nc1NN1C(=O)C=C(C)C1=O` [2-(3-Bromo-phenyl)-4-(3-methyl-2,5-dioxo-2,5-dihydro-pyrrol-1-ylamino)-pyrimidine-5-carboxylic acid ethyl ester] gave an IC50 of 0.7 µM.
Under `CCOC(=O)c1cnc(-c2ccc(F)cc2)nc1N(C)N1C(=O)C=C(C)C1=O` [2-(4-Fluoro-phenyl)-4-[methyl-(3-methyl-2,5-dioxo-2,5-dihydro-pyrrol-1-yl)-amino]-pyrimidine-5-carboxylic acid ethyl ester] stands 3 µM.
Compound `CCOC(=O)c1cnc(-c2ccc(OC)cc2)nc1NN1C(=O)C=C(C)C1=O` [2-(4-Methoxy-phenyl)-4-(3-methyl-2,5-dioxo-2,5-dihydro-pyrrol-1-ylamino)-pyrimidine-5-carboxylic acid ethyl ester] yielded an IC50 of 0.9 µM. This IC50 lies about 3.3-fold lower than the previous one.
Under `CCOC(=O)c1cnc(S(=O)(=O)c2ccccc2)nc1NN1C(=O)C=C(C)C1=O` [2-Benzenesulfonyl-4-(3-methyl-2,5-dioxo-2,5-dihydro-pyrrol-1-ylamino)-pyrimidine-5-carboxylic acid ethyl ester] stands 10 µM.
The result for `CCOC(=O)c1cnc(-c2cc3ccccc3s2)nc1NN1C(=O)C=C(C)C1=O` [2-Benzo[b]thiophen-2-yl-4-(3-methyl-2,5-dioxo-2,5-dihydro-pyrrol-1-ylamino)-pyrimidine-5-carboxylic acid ethyl ester] reads 4 µM; that for `CCOC(=O)c1cnc(CC2=CCCCC2)nc1NN1C(=O)C=C(C)C1=O` [2-Cyclohex-1-enylmethyl-4-(3-methyl-2,5-dioxo-2,5-dihydro-pyrrol-1-ylamino)-pyrimidine-5-carboxylic acid ethyl ester], 2 µM; that for `CCOC(=O)c1cnc(C2CC2)nc1NN1C(=O)C=C(C)C1=O` [2-Cyclopropyl-4-(3-methyl-2,5-dioxo-2,5-dihydro-pyrrol-1-ylamino)-pyrimidine-5-carboxylic acid ethyl ester], 1 µM.
Take `CCOC(=O)c1cnc(CC)nc1NN1C(=O)C=C(C)C1=O` [2-Ethyl-4-(3-methyl-2,5-dioxo-2,5-dihydro-pyrrol-1-ylamino)-pyrimidine-5-carboxylic acid ethyl ester]: inhibition was half-maximal at 10 µM (IC50).
The result for `CCOC(=O)c1cnc(C)nc1NN1C(=O)C=C(C)C1=O` [2-Methyl-4-(3-methyl-2,5-dioxo-2,5-dihydro-pyrrol-1-ylamino)-pyrimidine-5-carboxylic acid ethyl ester] reads 16 µM.
Under `CC1=CC(=O)N(Nc2nc(-c3cccs3)ncc2-c2nnn(C)n2)C1=O` [3-methyl-1-(5-(2-methyl-2H-tetrazol-5-yl)-2-(thiophen-2-yl)pyrimidin-4-ylamino)-1H-pyrrole-2,5-dione] stands 0.2 µM; under `CC1=CC(=O)N(Nc2nc(-c3cccs3)ncc2-c2cc(C)no2)C1=O` [3-methyl-1-(5-(3-methylisoxazol-5-yl)-2-(thiophen-2-yl)pyrimidin-4-ylamino)-1H-pyrrole-2,5-dione], 0.3 µM; under `CC1=CC(=O)N(Nc2nc(-c3cccs3)ncc2-c2nc(C)co2)C1=O` [3-methyl-1-(5-(4-methyloxazol-2-yl)-2-(thiophen-2-yl)pyrimidin-4-ylamino)-1H-pyrrole-2,5-dione], 0.2 µM.
The result for `CC1=CC(=O)N(Nc2nc(-c3cccs3)ncc2-c2nnc(C)o2)C1=O` [3-methyl-1-(5-(5-methyl-1,3,4-oxadiazol-2-yl)-2-(thiophen-2-yl)pyrimidin-4-ylamino)-1H-pyrrole-2,5-dione] reads 0.3 µM; that for `CCOC(=O)c1cnc(C(F)(F)F)nc1NN1C(=O)C=C(c2ccccc2)C1=O` [4-(2,5-Dioxo-3-phenyl-2,5-dihydro-pyrrol-1-ylamino)-2-trifluoromethyl-pyrimidine-5-carboxylic acid ethyl ester], 20 µM; that for `CCOC(=O)c1cnc(-c2csc(C)n2)nc1NN1C(=O)C=C(C)C1=O` [4-(3-Methyl-2,5-dioxo-2,5-dihydro-pyrrol-1-ylamino)-2-(2-methyl-thiazol-4-yl)-pyrimidine-5-carboxylic acid ethyl ester], 8 µM.
Regarding `CCOC(=O)c1cnc(-c2cccc([N+](=O)[O-])c2)nc1NN1C(=O)C=C(C)C1=O` [4-(3-Methyl-2,5-dioxo-2,5-dihydro-pyrrol-1-ylamino)-2-(3-nitro-phenyl)-pyrimidine-5-carboxylic acid ethyl ester], half-maximal inhibition (IC50) required 7 µM.
With `CCOC(=O)c1cnc(-c2ccc(C(F)(F)F)cc2)nc1NN1C(=O)C=C(C)C1=O` [4-(3-Methyl-2,5-dioxo-2,5-dihydro-pyrrol-1-ylamino)-2-(4-trifluoromethyl-phenyl)-pyrimidine-5-carboxylic acid ethyl ester], the IC50 amounted to 0.4 µM.
The result for `CCOC(=O)c1cnc(-c2ccc(C)s2)nc1NN1C(=O)C=C(C)C1=O` [4-(3-Methyl-2,5-dioxo-2,5-dihydro-pyrrol-1-ylamino)-2-(5-methyl-thiophen-2-yl)-pyrimidine-5-carboxylic acid ethyl ester] reads 0.2 µM; that for `CCOC(=O)c1cnc(SC)nc1NN1C(=O)C=C(C)C1=O` [4-(3-Methyl-2,5-dioxo-2,5-dihydro-pyrrol-1-ylamino)-2-methylsulfanyl-pyrimidine-5-carboxylic acid ethyl ester], 0.2 µM; that for `CCOC(=O)c1cnc(-c2ccccc2)nc1NN1C(=O)C=C(C)C1=O` [4-(3-Methyl-2,5-dioxo-2,5-dihydro-pyrrol-1-ylamino)-2-phenyl-pyrimidine-5-carboxylic acid ethyl ester], 0.1 µM.
`CC1=CC(=O)N(Nc2nc(-c3cccs3)ncc2C#N)C1=O` [4-(3-Methyl-2,5-dioxo-2,5-dihydro-pyrrol-1-ylamino)-2-thiophen-2-yl-pyrimidine-5-carbonitrile] came in with an IC50 of 5 µM.
The result for `CCOC(=O)c1cnc(C(F)(F)F)nc1NN1C(=O)C=C(C)C1=O` [4-(3-Methyl-2,5-dioxo-2,5-dihydro-pyrrol-1-ylamino)-2-trifluoromethyl-pyrimidine-5-carboxylic acid ethyl ester] reads 1 µM; that for `CCOC(=O)c1cnc(-c2ccccc2)nc1N(C(C)=O)N1C(=O)C=C(C)C1=O` [4-[Acetyl-(3-methyl-2,5-dioxo-2,5-dihydro-pyrrol-1-yl)-amino]-2-phenyl-pyrimidine-5-carboxylic acid ethyl ester], 4 µM; that for `CCOC(=O)c1cnc(-c2cc(Cl)nc(Cl)c2)nc1NN1C(=O)C=C(C)C1=O` [ethyl 2-(2,6-dichloropyridin-4-yl)-4-(3-methyl-2,5-dioxo-2H-pyrrol-1(5H)-ylamino)pyrimidine-5-carboxylate], 2 µM.
The result for `CCOC(=O)c1cnc(-c2cc(Cl)cc(Cl)c2)nc1NN1C(=O)C=C(C)C1=O` [ethyl 2-(3,5-dichlorophenyl)-4-(3-methyl-2,5-dioxo-2H-pyrrol-1(5H)-ylamino)pyrimidine-5-carboxylate] reads 0.3 µM; that for `CCOC(=O)c1cnc(-n2nc(C)cc2C)nc1NN1C(=O)C=C(C)C1=O` [ethyl 2-(3,5-dimethyl-1H-pyrazol-1-yl)-4-(3-methyl-2,5-dioxo-2H-pyrrol-1(5H)-ylamino)pyrimidine-5-carboxylate], 10 µM; that for `CCOC(=O)c1cnc(-c2cccc(OC)c2)nc1NN1C(=O)C=C(C)C1=O` [ethyl 2-(3-methoxyphenyl)-4-(3-methyl-2,5-dioxo-2H-pyrrol-1(5H)-ylamino)pyrimidine-5-carboxylate], 5 µM.
Under `CCOC(=O)c1cnc(-c2ccc(Cl)cc2)nc1NN1C(=O)C=C(C)C1=O` [ethyl 2-(4-chlorophenyl)-4-(3-methyl-2,5-dioxo-2H-pyrrol-1(5H)-ylamino)pyrimidine-5-carboxylate] stands 0.3 µM; under `CCOC(=O)c1cnc(-c2ccc(F)cc2)nc1NN1C(=O)C=C(C)C1=O` [ethyl 2-(4-fluorophenyl)-4-(3-methyl-2,5-dioxo-2H-pyrrol-1(5H)-ylamino)pyrimidine-5-carboxylate], 0.7 µM; under `CCOC(=O)c1cnc(-c2ccc(Cl)s2)nc1NN1C(=O)C=C(C)C1=O` [ethyl 2-(5-chlorothiophen-2-yl)-4-(3-methyl-2,5-dioxo-2H-pyrrol-1(5H)-ylamino)pyrimidine-5-carboxylate], 0.3 µM.
As for `CCOC(=O)c1cnc(C(=O)c2ccco2)nc1NN1C(=O)C=C(C)C1=O` [ethyl 2-(furan-2-carbonyl)-4-(3-methyl-2,5-dioxo-2H-pyrrol-1(5H)-ylamino)pyrimidine-5-carboxylate], the IC50 amounted to 0.7 µM.
Under `CCOC(=O)c1cnc(Cc2ccccc2)nc1NN1C(=O)C=C(C)C1=O` [ethyl 2-benzyl-4-(3-methyl-2,5-dioxo-2H-pyrrol-1(5H)-ylamino)pyrimidine-5-carboxylate] stands 7 µM.
The result for `CCOC(=O)c1cnc(CC)nc1N(C)N1C(=O)C=C(C)C1=O` [ethyl 2-ethyl-4-(methyl(3-methyl-2,5-dioxo-2H-pyrrol-1(5H)-yl)amino)pyrimidine-5-carboxylate] reads 10 µM; that for `CCOC(=O)c1cnc(C(C)(C)C)nc1NN1C(=O)C=C(C)C1=O` [ethyl 2-tert-butyl-4-(3-methyl-2,5-dioxo-2H-pyrrol-1(5H)-ylamino)pyrimidine-5-carboxylate], 1 µM.
Under `CCOC(=O)c1cnc(C(F)(F)F)nc1NN1C(=O)C=CC1=O` [ethyl 4-(2,5-dioxo-2H-pyrrol-1(5H)-ylamino)-2-(trifluoromethyl)pyrimidine-5-carboxylate] stands 10 µM.
`CCOC(=O)c1cnc(C(F)(F)F)nc1NN1C(=O)C(C)=C(C)C1=O` [ethyl 4-(3,4-dimethyl-2,5-dioxo-2H-pyrrol-1(5H)-ylamino)-2-(trifluoromethyl)pyrimidine-5-carboxylate] showed an IC50 of 10 µM.
Take `CCOC(=O)c1cnc(Sc2ccccc2)nc1NN1C(=O)C=C(C)C1=O` [ethyl 4-(3-methyl-2,5-dioxo-2,5-dihydro-1H-pyrrol-1-ylamino)-2-(phenylthio)pyrimidine-5-carboxylate]: 1 µM corresponded to half-maximal inhibition (IC50).

As a reminder, the IC50 is the concentration at which inhibition is half-maximal. Low readings indicate higher potency, high ones lower potency.
